Patent US20220408703A1, “IMAGING INDIVIDUAL HIPPOCAMPAL SEIZURES AND THE LONG-TERM IMPACT OF REPEATED SEIZURES” (The Board of Trustees of the Leland Stanford Junior …, priority 2019, published 2022)

Tested on: optogenetically induced ventral hippocampal seizures in rats
Conditions: same animals awake and under dexmedetomidine sedation
Excerpt: (A,B) Ventral hippocampal LFP recordings from the same animal and seizures induced when awake and under sedation. Red arrow indicates large amplitude spike onset, and insets i-iii) are magnified components of those seizures. Blue bar indicates time of optogenetic stimulation (40 Hz with 7.5 ms pulses) (C) Another set of electrophysiological recordings from a different animal in the awake and sedated state. […] Each line represents a single animal.
The afterdischarge threshold was first evaluated for each individual animal by gradually increasing stimulation intensity in a step-wise manner to drive electrographic seizures in the absence of behavioral seizures as assessed using the Racine scale. Starting with a 10 s train of 40 Hz stimulation with a pulse width of 7.5 ms at 1 mW, the power was increased 1 mW at a time with an interstimulus interval (ISI) of 1 min up to a maximum of 20 mW. If no afterdischarges were observed, the duration was increased by 2.5 s and power was reset to 1 mW.
Simultaneous LFP-ofMRI Data Acquisition to assess ventral hippocampal connectivity. To assess ventral hippocampal connectivity, CAMKIIa cells in ventral hippocampus were stimulated at 10 Hz using optogenetic stimulation and assessed using simultaneous LFP-fMRI. Data acquisition was performed using the 7T horizontal-bore system (Bruker BioSpec 70/30) at the Stanford Center for Innovation in In-Vivo Imaging (SCi3). […] A single bolus of Feraheme (15 mg/kg, i.v.) was used for cerebral blood volume (CBV) weighted imaging for the enhanced contrast to noise ratio (Mandeville et al., 1998) and microvascular sensitivity (Zhao et al., 2006) that this technique offers in comparison to BOLD fMRI. fMRI acquisition was carried out approximately 15 min post contrast agent injection using a 4-shot segmented spiral readout with the following acquisition parameters: TR=0.75 ms, TE=9 ms, flip angle=30, field-of-view=32×32 mm, matrix=70×70, slice thickness=0.6 mm, number of slices=30, number of repetitions=130, number of dummy scans=4. […]

Cc1cccc([C@H](C)c2cnc[nH]2)c1C [dexmedetomidine]
proportion of stimulations resulting in afterdischarges, awake vs sedated (40 Hz, 7.5 ms pulses, FIG. 10D): No differences | large amplitude spike onset, awake vs sedated (FIG. 10E): No differences | afterdischarge duration, sedated vs awake (FIG. 10F): did not result in shorter afterdischarges
